Source: US7030114B1, “Compounds which inhibit leukocyte adhesion mediated by VLA-4” (Elan Pharmaceuticals, Inc., priority 1997, dated 2006)

Test system: Experimental Autoimmune (or Allergic) Encephalomyelitis (“EAE”)
Experiment: In vivo evaluation: Experimental Autoimmune (or Allergic) Encephalomyelitis (EAE) model, motor impairment
Set-up: species or system rats or guinea pigs
Conditions: treatment from Day 8, bid for five days, SC, PO or IP

In the case of Cc1ccc(S(=O)(=O)N2CCC[C@@]2(C)C(=O)N[C@@H](Cc2ccc(OC(=O)N3CCN(C)CC3)cc2)C(=O)OC(C)(C)C)cc1 [Example 47, N-(toluene-4-sulfonyl)-α-methylprolyl-L-4-(4-methylpiperazin-1-carbonyloxy)phenylalanine tert-butyl ester], the “activity in EAE model (delayed the onset of symptoms, e.g., clinical scores no greater than 2 or slowed body weight loss as compared to the control)” value is reported as “active”.
